From article PMC10933344, “A lncRNA Dleu2-encoded peptide relieves autoimmunity by facilitating Smad3-mediated Treg induction” (EMBO Reports, 2024)

Tests used:
naive CD4+ T cells = assay: In vitro iTreg differentiation (Foxp3+ of CD4+ cells); assay type: cell-based, mouse; conditions: 20 μM, 72 h
Protocol: C57BL/6 mice were sacrificed, and their spleens and peripheral lymph nodes were removed and gently dissociated into single-cell suspensions. Naive T cells were isolated using the Mouse CD4 Naive T Cell Isolation Kit (BioLegend, Stem Cell, or Thermo Fisher Scientific). Flow cytometry verified that the purity (CD4^+CD25^−CD62L^hi) of the enriched subpopulation was typically higher than 95%. All T cells were cultured using RPMI-1640 medium (Gibco) supplemented with 10% heat-inactivated fetal bovine serum (Gibco), 2 mM L-glutamine (Gibco), 10,000 units/mL of penicillin, 10,000 µg/mL of streptomycin, and 25 µg/mL of Gibco Amphotericin B (Thermo Fisher Scientific), 10 mM HEPES (Gibco), 1 mM Sodium pyruvate, MEM Non-Essential Amino Acids (Life Technologies) and 55 μM β-mercaptoethanol (Gibco). 0.1 million naive CD4^+ T cells were activated with plate-coated anti-CD3 (2.5 μg/ml; BD Biosciences) and soluble anti-CD28 (2 μg/ml; BD Biosciences) antibodies. The Th1 cell differentiation condition included recombinant murine (rm)IL-12 (10 ng/ml, PeproTech) and anti-IL-4 (10 μg/ml, BioLegend). The Th17 cell differentiation condition included rmIL-6 (10 ng/ml, PeproTech), rmTGF-β1 (5 ng/ml, PeproTech), rmIL-23 (10 ng/ml, PeproTech), anti-IL-4 (5 μg/ml, BioLegend) and anti-IFN-γ (10 μg/ml, eBioscience). The inducible T regulatory cell (iTreg) differentiation condition included rmTGF-β (5 ng/ml, PeproTech). 0.1 million naive CD8^+ T cells were activated with plate-coated anti-CD3 (10 μg/ml; BD Biosciences) and plate-coated anti-CD28 (10 μg/ml; BD Biosciences) antibodies. The Tc17 cell differentiation condition included rmIL-6 (10 ng/ml, PeproTech), rmTGF-β1 (2 ng/ml, PeproTech), rmIL-23 (25 ng/ml, PeproTech), rmIL1-β (5 ng/ml, PeproTech), and anti-IFN-γ (10 μg/ml, eBioscience). The Tc1 cell differentiation condition included rmIL-2 (5 ng/ml, PeproTech) and rm IL-12 (1 ng/ml, PeproTech). Different concentrations of Dleu2-17aa and scrPEP (Genscript) were added to the T cell culture from the beginning unless specified. Cells were cultured in U-bottom 96-well plates for 72 h and detected by flow cytometry.
For in vitro mouse T cell differentiation, after 72 h of induction, cells were activated for 4–6 h at 37 °C with the Cell Stimulation Cocktail (Thermo Fisher Scientific) if intracellular cytokine staining is needed, surface markers were stained in FACS buffer (PBS containing 2% FBS) for 30 min at 4 °C protected from light. Cells were then fixed and permeabilized with the Foxp3 Staining Buffer Set (eBioscience) or BD Cytofix/Cytoperm (BD Biosciences) and were stained with fluorescent antibodies. After washing, stained cells were assayed with an LSRFortessa (BD) flow cytometer, and data were analyzed with FlowJo software. Single-cell suspensions from EAE mouse spleen or CNS (day 16 post-immunization) were derived through mechanical separation and passage through a 70-μm filter (Fisherbrand) and analyzed using similar steps. For flow cytometry, antibodies against CD4 (clone GK1.5, 1:200), CD62L (clone MEL-14, 1:200), CD44 (clone IM7, 1:200), CD25 (clone PC61.5, 1:200), IL-17A (clone eBio17B7, 1:200), IFN-γ (clone XMG1.2, 1:200), FoxP3 (clone FJK-16s, 1:200), CD184 (clone 2B11/CXCR4, 1:100), CD152 (clone BNI3 1:100) and CD357 (clone DTA-1 1:100) were from eBioscience, CD3 (clone 145-2C11, 1:200) was from Biolegend and TGFBI (1:100) were from proteintech. For Dleu2-17aa expression detection, C57BL/6 mice were sacrificed, and their spleens were removed and gently dissociated into single-cell suspensions. An Fc blocker was used to reduce potential nonspecific antibody staining caused by IgG. Surface staining was performed using monoclonal antibodies against CD45 (clone 30-F11), CD3 (clone 145-2C11), CD19 (clone SJ25C1), CD11c (clone N418), MHCII (clone M5/114.15.2), F4/80 (clone BM8) all at a dilution of 1:200 (from Biolengend) followed by fixation and permeabilization of the nuclear membrane BD Cytofix/Cytoperm (BD Biosciences). […]

[1] = tested on: Foxp3 CNS1-luciferase reporter / Smad3; assay: Foxp3 CNS1-luciferase reporter assay in NIH/3T3 cells; assay type: cell-based, mouse; conditions: 20 μM

For “ARGPARRMRGGRRRRLR [scrPEP, scrambled control peptide of Dleu2-17aa]”, the “Foxp3+/ CD4+ Cells (%)” value (naive CD4+ T cells; replicate 1) was 32.8%, the “Foxp3+/ CD4+ Cells (%)” value (naive CD4+ T cells; replicate 2) was 22.9% and the “Foxp3+/ CD4+ Cells (%)” value (naive CD4+ T cells; replicate 3) was 16.77%. The “Foxp3+/ CD4+ Cells (%)” value (naive CD4+ T cells; replicate 4) was 32.13%, the “Foxp3+/ CD4+ Cells (%)” value (naive CD4+ T cells; replicate 5) was 22.9% and the “Foxp3+/ CD4+ Cells (%)” value (naive CD4+ T cells; replicate 6) was 10.3%. For the same sequence, the “Foxp3+/ CD4+ Cells (%)” value (naive CD4+ T cells; replicate 7) was 30.6%, the Relative luciferase activity ([1]; with Smad3 vector, replicate 4) was 1.896 and the Relative luciferase activity ([1]; with Smad3 vector, replicate 5) was 1.262. For the same sequence, the Relative luciferase activity ([1]; without Smad3 vector, replicate 4) was 0.7583 and the Relative luciferase activity ([1]; without Smad3 vector, replicate 5) was 0.8478.
